pIC50: −log10 of the molar value.
Assays:
[1] = system: P388 murine leukemia cell lines; assay: In vitro proliferation of P388 cells (MTT); assay type: cell-based; conditions: for pIC50: value in parentheses
Procedure: (§1) Discodermolide and discodermolide analogs were analyzed as to their effects on proliferation of A549 human adenocarcinoma and P388 murine leukemia cell lines. P388 cells were obtained from Dr. R. Camalier, National Cancer Institute, Bethesda, MD, and A549 cells were obtained from American Type Culture Collection, Rockville, MD. All cell lines were maintained in tissue culture medium (TCM; Roswell Park Memorial Institute RPMI 1640 supplemented with 100 U/mL penicillin, […], 60 […], 18 mM HEPES, 0.05 mg/mL gentamicin (Life Technologies, Gaithersburg, MD) and 10% fetal bovine serum) and cultured in plastic tissue culture flasks at 37° C. in humidified air containing 5% CO2. Stock cultures of P388 cells were subcultured 1:20 in fresh TCM every 2 to 3 days. Stock cultures of A549 cells were subcultured 1:10 every 3 to 4 days. To assess the antiproliferative effects of agents against the cells, 200 μL cultures (96-well tissue culture plates, Nunc, Denmark) were established at 1 ×10^5 cells/mL in TCM or TCM containing the test agent at 0.03-5.0 μg/mL. After 48-h exposures, P388 cells were enumerated using 3-[4,5-dimethylthiazol-2-yl]-2,5-diphenyltetrazolium bromide (MTT) as described in the literature (M. C. Alley, et al., Cancer Res. 48:589, 1988). A549 cells were enumerated in the same manner after 72 hours exposure. The results were expressed as percent inhibition compared to the negative (no drug) control. Positive drug controls of varying dilutions of 5-fluorouracil and adriamycin (Sigma Chemical Co., St Louis, MO) were included to monitor drug sensitivity of the cell line.
(§2) To quantitate the effects on cell proliferation and resulting IC50 values, 75 μL of warm growth media containing 5 mg/mL MTT is added to each well, cultures returned to the incubator, and left undisturbed for 3 hours. To spectrophotometrically quantitate formation of reduced formazan, plates are centrifuged (500×g, 10 minutes), culture fluids removed by aspiration, and 200 μL of acidified isopropanol (2 mL concentrated HCl /liter isopropanol) added per well. The absorbance of the resulting solutions is measured in a plate reader (TECAN Spectra SLT; TECAN U.S., Research Triangle Park, N.C.) at 570 nm and a 650 nm reference filter. The absorbance of test wells is divided by the absorbance of drug-free wells, and the concentration of agent that results in 50% of the absorbance of untreated cultures (IC50) is determined by linear regression of logit-transformed data (D. J. Finney, Statistical Method in Biological Assay, third ed., pp. 316-348, Charles Griffin Co., London, 1978). A linear relationship between tumor cell number and formazan production has been routinely observed over the range of cell densities observed in these experiments. The two standard drug controls (indicated above) are included in each assay as a check to monitor the drug sensitivity of each of the cell lines and IC50 values are determined for each drug-cell combination.

[2] = system: A549 human adenocarcinoma; assay: In vitro proliferation of A549 cells (MTT); assay type: cell-based; conditions: for pIC50: value in parentheses
Procedure: as §1, §2

[3] = system: A549 human adenocarcinoma tumor cells; assay: Microtubule bundling patterns in tumor cells by immunofluorescence; assay type: cell-based; parameters: key to Microtubule bundling in A549 cells: −: no effect; +/−: minimal or questionable effect; +: weak effect; ++: strong effect; +++: very strong effect equivalent to discodermolide; conditions: subjective rating versus discodermolide
Procedure: Discodermolide and discodermolide analogs were evaluated as to their effects on the morphology of the microtubule network of cells using mouse anti-alpha-tubulin monoclonal antibody.
On day one, 7×10^4 adherent A549 human adenocarcinoma tumor cells were cultured in TCM overnight at 37° C. in 5% CO2 on 22 mm^2 cover slips in 6-well microtiter plates. On day two, TCM was removed and replaced with 10-1000 nM discodermolide or analog in TCM or TCM without drug (control) and incubated overnight at 37° C. in 5% CO2. On day three, TCM was removed and cells attached to cover slips were fixed with a 3.7% formaldehyde solution in Dulbecco's PBS for 10 minutes at room temperature. Cells were permeabilized with a 2% Triton X-100 solution, 2 mL per well, for 5 minutes at room temperature and washed twice in Dulbecco's PBS prior to staining.
To each well containing cells attached to cover slips a 2 mL volume of mouse anti- alpha-tubulin monoclonal antibody (Cat# T-5168, Sigma Chemical Co., St. Louis, Mo.) diluted 1:1000 in Dulbecco's phosphate buffered saline (D-PBS) was added and the cells incubated at room temperature for 45 minutes. Cover slips were rinsed once with D-PBS. A 2 mL volume of goat-anti-mouse-IgG-FITC conjugated antibody (Cat# T-5262, Sigma Chemical Co., St. Louis, Mo.) diluted 1:1000 in D-PBS was added and the cells incubated at room temperature for 45 minutes. Cover slips were rinsed once in D-PBS and DNA was stained with 0.02 mg/mL propidium iodide together with 0.1 mg/mL of ribonuclease A (RNAse) A in D-PBS at 37° C. for 30 minutes. Cover slips were rinsed three times with sterile distilled water, air-dried and mounted on slides with SlowFade™ antifade solution (Molecular Probes, Eugene, Oreg.) and observed under the microscope using epifluorescence illumination for the presence of abnormal aster and microtubule bundle formations.

[4] = system: purified bovine brain tubulin; assay: Tubulin polymerization (optical density at 350 nm); assay type: biochemical; parameters: key to Purified tubulin polymerization by 10 μM / Purified tubulin polymerization at 10 μM: −: no effect; +/−: minimal or questionable effect; +: weak effect; ++: strong effect; +++: very strong effect equivalent to discodermolide; conditions: 10 μM compound, 1 mg/mL tubulin; for Purified tubulin polymerization, temperature at which polymerization commences: temperature ramp 4 to 35° C.; for Purified tubulin polymerization at 10 μM: Table 12
Procedure: Compounds were tested at 10 μM with 1 mg/mL tubulin. The temperature was varied during the course of the experiment as follows: the experiment was begun with an initial temperature of 4° C. and held for 1 minute; the temperature was then increased to 35° C. at a rate of 1° C./minute, held at 35° C. for 1 minute, decreased to 4° C. at a rate of 2° C/minute, and finally held at 4° C. for 14 minutes. The curves shown are for compounds: discodermolide (I); 2-desmethyldiscodermolide (II); 19-desaminocarbonyldiscodermolide (III); 2-epidiscodermolide (IV); and 3-deoxy-2A-discodermolide (VI).
Compounds were tested at 10 μM with 1 mg/mL tubulin. The temperature was varied during the course of the experiment as follows: the experiment was begun with an initial temperature of 4° C. and held for 1 minute; the temperature was then increased to 35° C. at a rate of 1° C./minute, held at 35° C. for 1 minute, decreased to 4° C. at a rate of 2° C./minute, and finally held at 4° C. for 14 minutes. The curves shown are for discodermolide (I); 8,21,23-hexahydrodiscodermolide (XII) and 7-deoxy-8,21,23-hexahydrodiscodermolide (XIII).
Polymerization of purified bovine brain tubulin (Cytoskeleton Inc., Denver, Colo.) was followed by changes in the optical density of tubulin solutions at 350 nm in a Hitachi U-3010 spectrophotometer equipped with a SPR-10 electronic thermostatted cell holder. Stock solutions of tubulin were diluted on ice in G-PEM buffer (1 mM GTP, 80 mM PIPES, 1 mM EGTA, 0.5 mM magnesium chloride; pH 6.8) to a final concentration of 1 mg/mL. The instrument was zeroed on this solution at 4° C. Discodermolide, and its analogs, were then added to the tubulin solution to a final concentration of 10 μM, quickly mixed, and the absorbance monitored over a period of 61 minutes. Within this time the temperature of the thermoelectric cell holder was held at 4° C. for 1 minute, increased to 35° C. at a rate of 1° C./minute, reduced back to 4° C. at a rate of 2° C./minute, and held at 4° C. for an additional 14 minutes.

[5] = Mus musculus, P388, 48-h exposure
[6] = Homo sapiens, A549, 72 hours exposure

Row | Molecule | IC50 P388 cells ([1]; 48-h exposure) [µg/mL] | pIC50 ([1]; 48-h exposure) | IC50 A549 cells ([2]; 72 hours exposure) [µg/mL] | pIC50 ([2]; 72 hours exposure) | Microtubule bundling in A549 cells ([3]; Table 12) | Purified tubulin polymerization, temperature at which polymerization commences [4] | Purified tubulin polymerization at 10 μM ([4]; subjective rating) | Microtubule bundling in A549 cells ([3]; Table 11) | IC50 [1, 5] [µg/mL] | pIC50 [1, 5] | IC50 [2, 6] [µg/mL] | pIC50 [2, 6] | Purified tubulin polymerization by 10 μM ([4]; subjective rating, Table 11)
1 | C=CC=CC(C)C(OC(N)=O)C(C)C(O)C(C)CC(C)=CC(C)C(O)C(C)C=CC(O)CC1OC(=O)C(C)=CC1C (centres unmarked) [3-Deoxy-2Δ-discodermolide (VI), 3-deoxy-2Δ-discodermolide] | 0.02 | 7.47 | 0.0125 | 7.66 | +++ | 21 °C | + |  |  |  |  |  | 
2 | C=CC=CC(C)C(OC(N)=O)C(C)C(OC(C)=O)C(C)CC(C)=CC(C)C(O)C(C)C=CC(O)CC1OC(=O)C(C)=CC1C (centres unmarked) [3-deoxy-2Δ-discodermolide-17-acetate] | >5 | < 5.09 | >5 | < 5.09 | − |  | − |  |  |  |  |  | 
3 | C=CC=CC(C)C(OC(N)=O)C(C)C(OC(C)=O)C(C)CC(C)=CC(C)C(OC(C)=O)C(C)C=CC(CC1OC(=O)C(C)=CC1C)OC(C)=O (centres unmarked) [3-deoxy-2Δ-discodermolide-7,11,17-triacetate] | 4.96 | 5.15 | >5 | < 5.15 | − |  | − |  |  |  |  |  | 
4 | Methyldiscodermolate [Methyldiscodermolate (V)] | 0.04 | 7.18 | 0.045 | 7.13 |  | (12° C.) |  | + |  |  |  |  | 
5 | C=C/C=C\[C@H](C)[C@H](OC(N)=O)[C@@H](C)[C@H](O)[C@@H](C)C/C(C)=C\[C@H](C)[C@@H](O)[C@@H](C)/C=C\[C@@H](O)C[C@@H]1OC(=O)[C@H](C)[C@@H](O)[C@H]1C [Discodermolide (I), discodermolide] |  |  |  |  |  | 4 °C |  | +++ | 0.021 | 7.46 | 0.008 | 7.87 | +++
6 | C=CC=CC(C)C(OC(N)=O)C(C)C(O)C(C)CC(C)=CC(C)C(OC(C)=O)C(C)C=CC(O)CC1OC(=O)C(C)=CC1C (centres unmarked) [3-Deoxy-2Δ-discodermolide-11-acetate (X), 3-deoxy-2Δ-discodermolide-11-acetate] | 0.32 | 6.28 | 1.93 | 5.50 | − |  | − |  |  |  |  |  | 
7 | C=CC=CC(C)C(OC(N)=O)C(C)C(OC(C)=O)C(C)CC(C)=CC(C)C(OC(C)=O)C(C)C=CC(O)CC1OC(=O)C(C)=CC1C (centres unmarked) [3-deoxy-2Δ-discodermolide-11,17-diacetate] | >5 | < 5.12 | >5 | < 5.12 | − |  | − |  |  |  |  |  | 

Source: patent US6495594B2, “Biologically active analogs of discodermolide” (Harbor Branch Oceanographic Institution, Inc., priority 2000, dated 2002)
